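Compound exposure: 48 hours, 5 concentrations, 96-well plates. TGI denotes the concentration required for complete inhibition of growth.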
Legend:
Experiment in all cases: growth of human tumour cells (NCI), 48 h
[1] = test system: SF-268 CNS
[2] = test system: UACC-257 melanoma
[3] = test system: RPMI-8226 leukemia
[4] = test system: HCT-116 colon
[5] = test system: U251 CNS
[6] = test system: ACHN renal
[7] = test system: MOLT-4 leukemia
[8] = test system: SNB-75 CNS
[9] = test system: SR leukemia
[10] = test system: HOP-92 NSCLC
[11] = test system: OVCAR-5 ovarian
[12] = test system: UACC-62 melanoma
[13] = test system: RXF 393 renal
[14] = test system: SK-MEL-2 melanoma
[15] = test system: NCI/ADR-RES ovarian
[16] = test system: EKVX NSCLC
[17] = test system: KM12 colon
[18] = test system: UO-31 renal
[19] = test system: TK-10 renal

| Structure (SMILES) | TGI [1] [µM] | TGI [2] [µM] | TGI [3] [µM] | TGI [4] [µM] | TGI [5] [µM] | TGI [6] [µM] | TGI [7] [µM] | TGI [8] [µM] | TGI [9] [µM] | TGI [10] [µM] | TGI [11] [µM] | TGI [12] [µM] | TGI [13] [µM] | TGI [14] [µM] | TGI [15] [µM] | TGI [16] [µM] | TGI [17] [µM] | TGI [18] [µM] | TGI [19] [µM] |
| --- | --- | --- | --- | --- | --- | --- | --- | --- | --- | --- | --- | --- | --- | --- | --- | --- | --- | --- | --- |
| COC(=O)CC(C#N)(OP1(=O)OC(c2ccccc2)C(C)N1C)c1ccccc1 (stereo not drawn) | > 100 | 46.4 | 70.2 | 52.4 | 87.3 | 59.8 | 59.2 | > 100 | 74.8 | 85.8 | 69.6 | 56.9 | 52.3 | 95 | > 100 | 60.3 | 48.8 | 27.2 | > 100 |
| O=C1C2CC=CCC2C(=O)N1n1c(Cc2ccc(Cl)cc2)n[nH]c1=O (stereo not drawn) | > 100 | > 100 | > 100 | > 100 | > 100 | > 100 | > 100 | > 100 | > 100 | > 100 | > 100 | > 100 | > 100 | > 100 | > 100 | > 100 | > 100 | > 100 | > 100 |
| CCCn1c2ccccc2c2ccc3c(c21)C(=O)C=CC3=O | > 10 | 5.48 | 5.4 | 3.13 | > 10 | 3.59 | 2.26 | > 10 | 0.883 | 3.8 | > 10 | > 10 | 3.87 | > 10 | > 6.93 | > 7.95 | > 10 | > 10 | 3.76 |
| O=C(O)CC(CC(=O)O)C(=O)O | > 100 | > 100 | > 100 | > 100 | > 100 | > 100 | > 100 | > 100 | > 100 | > 100 | > 100 | > 100 | > 100 | > 100 | > 100 | > 100 | > 100 | > 100 | > 100 |
| CC1(c2cccs2)CC(c2cccs2)=C(C#N)C(=C(C#N)C#N)N1 (stereo not drawn) | 35.9 | 32.7 | 61.5 | 31.6 | 31 | 32.1 | > 100 | 33.2 | > 100 | 30.8 | 39.3 | 29.6 | 38.7 | 37.4 | 49.5 | 33.6 | 32.3 | 34.8 | 36.5 |
| O=c1cnn(C2OC(C(O)CO)C(O)C2O)c(=O)[nH]1 (stereo not drawn) | > 100 | > 100 | > 100 | > 100 | > 100 | > 100 | > 100 | > 100 | > 100 | > 100 | > 100 | > 100 | > 100 | > 100 | > 100 | > 100 | > 100 | > 100 | > 100 |
| N#Cc1nc2ccccc2nc1N1CCN(c2ccc([N+](=O)[O-])cc2)CC1 | > 100 | > 100 | > 100 | > 100 | > 100 | > 100 | 1.05 | > 100 | > 100 | > 100 | > 100 | > 100 | > 100 | > 100 | > 100 | > 100 | > 100 | > 100 | > 100 |

Reference: PubChem BioAssay (NCI)
